# Key:
# Format in all cases: in vivo
# [1] = system: redroot pigweed (Amaranthus retroflexus, AMARE); test: Pre-emerge test, greenhouse herbicide activity screening; conditions: pre-emerge, 14 days after application, scale 0-100
# Outline: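 Herbicidal damage is scored 0 (none) to 100 (complete plant death) two weeks after a simulated field spray. Rates span 15–1000 g ai/ha, delivered in acetone at 187 l/ha. For post-emergence treatments, plants have 2–3 leaves and the spray carries 0.25% v/v non-ionic surfactant.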
# [2] = system: upland rice (Oryza sp., var. Tebonnet, RICE); test: Pre-emerge test, crop safety; conditions: pre-emerge, 14 days after application, scale 0-100
# Outline: (§1)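 Applied at 15–1000 g ai/ha from acetone in 187 l/ha spray volume. Post-emergence applications included 0.25% v/v non-ionic surfactant and reached plants sown 8–21 days before. Pre-emergence applications were incorporated by surface watering. Efficacy or crop damage was rated on a 0–100 scale after 14 days.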
# [3] = system: field corn (Zea mays L., var. Dekalb 535, CORN); test: Pre-emerge test, crop safety; conditions: pre-emerge, 14 days after application, scale 0-100
# Outline: as §1
# [4] = system: upland rice (Oryza sp., var. Tebonnet, RICE); test: Post-emerge test, crop safety; conditions: post-emerge, 14 days after application, rating scale 0-100
# Outline: (§2)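 Compounds in acetone were track-sprayed at 187 l/ha, 15–1000 g ai/ha, onto sandy loam pots. Pre-emerge seeds were sown one day before spraying, with surface watering afterwards. Post-emerge plants were at the 2–3 leaf stage and sprayed with 0.25% v/v non-ionic surfactant. Injury was rated 0–100 at 14 days.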
# [5] = system: field corn (Zea mays L., var. Dekalb 535, CORN); test: Post-emerge test, crop safety; conditions: post-emerge, 14 days after application, rating scale 0-100
# Outline: as §2
# [6] = system: redroot pigweed (Amaranthus retroflexus, AMARE); test: Post-emerge test, greenhouse herbicide activity screening; conditions: post-emerge, 14 days after application, rating scale 0-100
# Outline: as §1
# [7] = system: velvetleaf (Abutilon theophrasti, ABUTH); test: as above; conditions: post-emerge, 14 days after application, rating scale 0-100
# Outline: as §1
# [8] = system: lambsquarters (Chenopodium album, CHEAL); test: as above; conditions: post-emerge, 14 days after application, rating scale 0-100
# Outline: as §1
# [9] = system: ivyleaf morningglory (Ipomoea hederacea, IPOHE); test: as above; conditions: post-emerge, 14 days after application, rating scale 0-100
# Outline: as §1
# [10] = system: sicklepod (Cassia obtusifolia, CASOB); test: as above; conditions: post-emerge, 14 days after application, rating scale 0-100
# Outline: as §1
# [11] = system: large crabgrass (Digitaria sanguinalis, DIGSA); test: as above; conditions: post-emerge, 14 days after application, rating scale 0-100
# Outline: as §1
# [12] = system: green foxtail (Setaria viridis, SETVI); test: as above; conditions: post-emerge, 14 days after application, rating scale 0-100
# Outline: as §1
# [13] = system: barnyardgrass (Echinochloa crus-galli, ECHCG); test: as above; conditions: post-emerge, 14 days after application, rating scale 0-100
# Outline: as §1
# [14] = system: velvetleaf (Abutilon theophrasti, ABUTH); test: Pre-emerge test, greenhouse herbicide activity screening; conditions: pre-emerge, 14 days after application, scale 0-100
# Outline: as §2
# [15] = system: lambsquarters (Chenopodium album, CHEAL); test: as above; conditions: pre-emerge, 14 days after application, scale 0-100
# Outline: as §2
# [16] = system: ivyleaf morningglory (Ipomoea hederacea, IPOHE); test: as above; conditions: pre-emerge, 14 days after application, scale 0-100
# Outline: as §2
# [17] = system: johnsongrass (Sorghum halepense, SORHA); test: as above; conditions: pre-emerge, 14 days after application, scale 0-100
# Outline: as §2
# [18] = system: sicklepod (Cassia obtusifolia, CASOB); test: as above; conditions: pre-emerge, 14 days after application, scale 0-100
# Outline: as §2
# [19] = system: large crabgrass (Digitaria sanguinalis, DIGSA); test: as above; conditions: pre-emerge, 14 days after application, scale 0-100
# Outline: as §2
# [20] = system: green foxtail (Setaria viridis, SETVI); test: as above; conditions: pre-emerge, 14 days after application, scale 0-100
# Outline: as §2
# [21] = system: barnyardgrass (Echinochloa crus-galli, ECHCG); test: as above; conditions: pre-emerge, 14 days after application, scale 0-100
# Outline: as §2
structure (smiles),measurement,setting,value
COc1c(Cl)cc(F)c(-n2c(=O)cc(C(F)(F)F)n(C)c2=O)c1NC(=O)CCc1cc(C)ccc1C [2-132],phytotoxicity rating AMARE,[1]; 63 g ai/ha,100
same,phytotoxicity rating AMARE,[1]; 250 g ai/ha,100
same,phytotoxicity rating RICE (crop damage),[2]; 63 g ai/ha,15
same,phytotoxicity rating RICE (crop damage),[2]; 250 g ai/ha,45
same,phytotoxicity rating CORN (crop damage),[3]; 63 g ai/ha,5
same,phytotoxicity rating CORN (crop damage),[3]; 250 g ai/ha,15
same,RICE phytotoxicity rating (crop damage),[4]; 63 g ai/ha,50
same,RICE phytotoxicity rating (crop damage),[4]; 250 g ai/ha,80
same,CORN phytotoxicity rating (crop damage),[5]; 63 g ai/ha,60
same,CORN phytotoxicity rating (crop damage),[5]; 250 g ai/ha,75
same,AMARE phytotoxicity rating,[6]; 63 g ai/ha,100
same,AMARE phytotoxicity rating,[6]; 250 g ai/ha,100
same,ABUTH phytotoxicity rating,[7]; 63 g ai/ha,100
same,ABUTH phytotoxicity rating,[7]; 250 g ai/ha,100
same,CHEAL phytotoxicity rating,[8]; 63 g ai/ha,100
same,CHEAL phytotoxicity rating,[8]; 250 g ai/ha,100
same,IPOHE phytotoxicity rating,[9]; 63 g ai/ha,100
same,IPOHE phytotoxicity rating,[9]; 250 g ai/ha,100
same,CASOB phytotoxicity rating,[10]; 63 g ai/ha,100
same,CASOB phytotoxicity rating,[10]; 250 g ai/ha,99
same,DIGSA phytotoxicity rating,[11]; 63 g ai/ha,10
same,DIGSA phytotoxicity rating,[11]; 250 g ai/ha,25
same,SETVI phytotoxicity rating,[12]; 63 g ai/ha,40
same,SETVI phytotoxicity rating,[12]; 250 g ai/ha,60
same,ECHCG phytotoxicity rating,[13]; 63 g ai/ha,20
same,ECHCG phytotoxicity rating,[13]; 250 g ai/ha,40
same,phytotoxicity rating ABUTH,[14]; 63 g ai/ha,100
same,phytotoxicity rating ABUTH,[14]; 250 g ai/ha,100
same,phytotoxicity rating CHEAL,[15]; 63 g ai/ha,100
same,phytotoxicity rating CHEAL,[15]; 250 g ai/ha,100
same,phytotoxicity rating IPOHE,[16]; 63 g ai/ha,20
same,phytotoxicity rating IPOHE,[16]; 250 g ai/ha,40
same,phytotoxicity rating SORHA,[17]; 63 g ai/ha,30
same,phytotoxicity rating SORHA,[17]; 250 g ai/ha,50
same,phytotoxicity rating CASOB,[18]; 63 g ai/ha,50
same,phytotoxicity rating CASOB,[18]; 250 g ai/ha,100
same,phytotoxicity rating DIGSA,[19]; 63 g ai/ha,60
same,phytotoxicity rating DIGSA,[19]; 250 g ai/ha,100
same,phytotoxicity rating SETVI,[20]; 63 g ai/ha,90
same,phytotoxicity rating SETVI,[20]; 250 g ai/ha,100
same,phytotoxicity rating ECHCG,[21]; 63 g ai/ha,30
same,phytotoxicity rating ECHCG,[21]; 250 g ai/ha,40
COc1c(Cl)cc(F)c(-n2c(=O)cc(C(F)(F)F)n(C)c2=O)c1NC(=O)COc1ccc(F)cc1 [2-133],phytotoxicity rating AMARE,[1]; 63 g ai/ha,100
same,phytotoxicity rating AMARE,[1]; 250 g ai/ha,100
same,phytotoxicity rating RICE (crop damage),[2]; 63 g ai/ha,70
same,phytotoxicity rating RICE (crop damage),[2]; 250 g ai/ha,93
same,phytotoxicity rating CORN (crop damage),[3]; 63 g ai/ha,20
same,phytotoxicity rating CORN (crop damage),[3]; 250 g ai/ha,80
same,RICE phytotoxicity rating (crop damage),[4]; 63 g ai/ha,80
same,RICE phytotoxicity rating (crop damage),[4]; 250 g ai/ha,95
same,CORN phytotoxicity rating (crop damage),[5]; 63 g ai/ha,70
same,CORN phytotoxicity rating (crop damage),[5]; 250 g ai/ha,95
same,AMARE phytotoxicity rating,[6]; 63 g ai/ha,100
same,AMARE phytotoxicity rating,[6]; 250 g ai/ha,100
same,ABUTH phytotoxicity rating,[7]; 63 g ai/ha,100
same,ABUTH phytotoxicity rating,[7]; 250 g ai/ha,100
same,CHEAL phytotoxicity rating,[8]; 63 g ai/ha,100
same,CHEAL phytotoxicity rating,[8]; 250 g ai/ha,100
same,IPOHE phytotoxicity rating,[9]; 63 g ai/ha,90
same,IPOHE phytotoxicity rating,[9]; 250 g ai/ha,100
same,CASOB phytotoxicity rating,[10]; 63 g ai/ha,80
same,CASOB phytotoxicity rating,[10]; 250 g ai/ha,100
same,DIGSA phytotoxicity rating,[11]; 63 g ai/ha,30
same,DIGSA phytotoxicity rating,[11]; 250 g ai/ha,70
same,SETVI phytotoxicity rating,[12]; 63 g ai/ha,70
same,SETVI phytotoxicity rating,[12]; 250 g ai/ha,75
same,ECHCG phytotoxicity rating,[13]; 63 g ai/ha,50
same,ECHCG phytotoxicity rating,[13]; 250 g ai/ha,85
same,phytotoxicity rating ABUTH,[14]; 63 g ai/ha,100
same,phytotoxicity rating ABUTH,[14]; 250 g ai/ha,100
same,phytotoxicity rating CHEAL,[15]; 63 g ai/ha,100
same,phytotoxicity rating CHEAL,[15]; 250 g ai/ha,100
same,phytotoxicity rating IPOHE,[16]; 63 g ai/ha,80
same,phytotoxicity rating IPOHE,[16]; 250 g ai/ha,100
same,phytotoxicity rating SORHA,[17]; 63 g ai/ha,75
same,phytotoxicity rating SORHA,[17]; 250 g ai/ha,100
same,phytotoxicity rating CASOB,[18]; 63 g ai/ha,55
same,phytotoxicity rating CASOB,[18]; 250 g ai/ha,100
same,phytotoxicity rating DIGSA,[19]; 63 g ai/ha,95
same,phytotoxicity rating DIGSA,[19]; 250 g ai/ha,100
same,phytotoxicity rating SETVI,[20]; 63 g ai/ha,95
same,phytotoxicity rating SETVI,[20]; 250 g ai/ha,100
same,phytotoxicity rating ECHCG,[21]; 63 g ai/ha,65
same,phytotoxicity rating ECHCG,[21]; 250 g ai/ha,95

# Source: US6355799B1, “Substituted benzene compounds, process for their preparation, and herbicidal and defoliant compositions containing them” (ISK Americas Incorporated, priority 1997, dated 2002)
